Structures can show the parent of a compound that is named as a salt. Where two headings read alike, the source gives them in different places.
Tests used:
Human JAK3 [1] = target: T1, Human JAK3 (Homo sapiens (Human), UniProt P52333); test: In vitro kinase inhibition test, JAK3 (33P-ATP filter scintillation); format: biochemical
Human TYK2 [2] = target: T2, Human TYK2 (Homo sapiens (Human), UniProt P29597); test: In vitro kinase inhibition test, TYK2 (33P-ATP filter scintillation); format: biochemical; conditions: compound at 1 uM; read-out: TYK2 kinase-phosphorylation inhibitory level (% inhibition)
T2 sequence (P29597 whole entry): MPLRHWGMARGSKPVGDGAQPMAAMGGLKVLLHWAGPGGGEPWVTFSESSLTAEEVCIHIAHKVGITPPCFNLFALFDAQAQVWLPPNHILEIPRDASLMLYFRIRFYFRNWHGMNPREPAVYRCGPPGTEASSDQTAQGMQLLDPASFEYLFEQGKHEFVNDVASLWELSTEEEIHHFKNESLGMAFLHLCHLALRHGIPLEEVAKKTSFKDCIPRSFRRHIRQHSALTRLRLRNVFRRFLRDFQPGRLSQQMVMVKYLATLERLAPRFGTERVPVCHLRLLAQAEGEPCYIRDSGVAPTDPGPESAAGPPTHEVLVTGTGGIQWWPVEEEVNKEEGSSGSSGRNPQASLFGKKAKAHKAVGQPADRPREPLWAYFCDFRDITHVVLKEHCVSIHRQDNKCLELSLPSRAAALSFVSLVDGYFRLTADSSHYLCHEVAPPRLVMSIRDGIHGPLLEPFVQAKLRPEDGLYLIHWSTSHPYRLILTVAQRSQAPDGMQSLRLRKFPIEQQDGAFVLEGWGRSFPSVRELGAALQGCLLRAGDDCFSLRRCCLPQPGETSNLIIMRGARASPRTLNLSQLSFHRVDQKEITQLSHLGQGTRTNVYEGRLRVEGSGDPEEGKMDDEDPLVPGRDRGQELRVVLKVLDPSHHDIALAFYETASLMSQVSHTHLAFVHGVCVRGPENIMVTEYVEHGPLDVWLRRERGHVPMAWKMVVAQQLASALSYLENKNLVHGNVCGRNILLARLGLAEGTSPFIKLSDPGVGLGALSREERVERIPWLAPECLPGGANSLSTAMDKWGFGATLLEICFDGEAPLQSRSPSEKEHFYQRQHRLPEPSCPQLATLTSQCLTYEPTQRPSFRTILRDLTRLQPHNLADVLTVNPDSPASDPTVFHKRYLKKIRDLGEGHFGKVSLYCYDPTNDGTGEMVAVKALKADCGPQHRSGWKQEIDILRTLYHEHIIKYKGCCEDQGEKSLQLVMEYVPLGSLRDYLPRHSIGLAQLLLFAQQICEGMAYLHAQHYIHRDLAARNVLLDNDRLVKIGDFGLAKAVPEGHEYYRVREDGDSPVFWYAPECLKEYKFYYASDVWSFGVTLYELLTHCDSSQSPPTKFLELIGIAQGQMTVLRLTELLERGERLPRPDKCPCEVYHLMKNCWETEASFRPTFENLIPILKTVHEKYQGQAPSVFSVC

Human JAK2 [3] = target: T3, Human JAK2 (Homo sapiens (Human), UniProt O60674); test: In vitro kinase inhibition test, JAK2 (33P-ATP filter scintillation); format: biochemical; conditions: compound at 1 uM; read-out: JAK2 kinase-phosphorylation inhibitory level (% inhibition)
T3 sequence (O60674 whole entry): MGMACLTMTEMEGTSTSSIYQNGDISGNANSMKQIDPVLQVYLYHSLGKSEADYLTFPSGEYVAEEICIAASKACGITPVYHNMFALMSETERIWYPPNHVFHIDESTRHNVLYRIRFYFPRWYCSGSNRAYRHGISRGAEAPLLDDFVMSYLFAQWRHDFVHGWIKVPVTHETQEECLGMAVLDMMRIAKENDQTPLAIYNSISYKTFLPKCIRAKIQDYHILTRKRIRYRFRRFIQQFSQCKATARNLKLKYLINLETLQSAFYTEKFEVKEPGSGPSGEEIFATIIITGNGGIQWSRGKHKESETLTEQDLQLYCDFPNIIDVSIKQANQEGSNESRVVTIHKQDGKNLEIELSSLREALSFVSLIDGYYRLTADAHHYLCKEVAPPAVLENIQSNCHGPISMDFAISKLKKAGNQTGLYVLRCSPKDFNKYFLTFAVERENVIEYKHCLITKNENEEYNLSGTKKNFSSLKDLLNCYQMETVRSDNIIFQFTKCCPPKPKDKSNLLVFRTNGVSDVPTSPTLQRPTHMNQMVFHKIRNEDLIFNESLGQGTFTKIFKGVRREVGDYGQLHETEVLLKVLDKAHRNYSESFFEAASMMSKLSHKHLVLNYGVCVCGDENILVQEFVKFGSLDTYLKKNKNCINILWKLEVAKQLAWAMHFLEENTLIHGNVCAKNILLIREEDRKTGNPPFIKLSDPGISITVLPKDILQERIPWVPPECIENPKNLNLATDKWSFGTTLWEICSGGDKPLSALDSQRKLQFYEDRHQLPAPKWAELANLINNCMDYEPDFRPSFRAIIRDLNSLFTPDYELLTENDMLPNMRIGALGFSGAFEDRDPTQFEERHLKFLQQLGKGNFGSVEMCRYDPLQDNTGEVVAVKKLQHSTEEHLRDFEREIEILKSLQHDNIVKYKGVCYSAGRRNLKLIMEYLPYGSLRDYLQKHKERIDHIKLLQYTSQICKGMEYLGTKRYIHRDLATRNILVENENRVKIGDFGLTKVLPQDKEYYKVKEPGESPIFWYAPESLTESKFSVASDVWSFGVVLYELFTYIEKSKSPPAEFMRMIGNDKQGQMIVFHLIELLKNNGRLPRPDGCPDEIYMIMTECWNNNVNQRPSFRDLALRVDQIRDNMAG

Human JAK3 [4] = target: T1, Human JAK3; test: In vitro kinase inhibition test, JAK3 (33P-ATP filter scintillation); format: biochemical; conditions: compound at 1 uM; read-out: JAK3 kinase-phosphorylation inhibitory level (% inhibition)
Human JAK1 [5] = target: T4, Human JAK1 (Homo sapiens (Human), UniProt P23458); test: In vitro kinase inhibition test, JAK1 (33P-ATP filter scintillation); format: biochemical; conditions: compound at 1 uM; read-out: JAK1 kinase-phosphorylation inhibitory level (% inhibition)
T4 sequence (P23458 whole entry): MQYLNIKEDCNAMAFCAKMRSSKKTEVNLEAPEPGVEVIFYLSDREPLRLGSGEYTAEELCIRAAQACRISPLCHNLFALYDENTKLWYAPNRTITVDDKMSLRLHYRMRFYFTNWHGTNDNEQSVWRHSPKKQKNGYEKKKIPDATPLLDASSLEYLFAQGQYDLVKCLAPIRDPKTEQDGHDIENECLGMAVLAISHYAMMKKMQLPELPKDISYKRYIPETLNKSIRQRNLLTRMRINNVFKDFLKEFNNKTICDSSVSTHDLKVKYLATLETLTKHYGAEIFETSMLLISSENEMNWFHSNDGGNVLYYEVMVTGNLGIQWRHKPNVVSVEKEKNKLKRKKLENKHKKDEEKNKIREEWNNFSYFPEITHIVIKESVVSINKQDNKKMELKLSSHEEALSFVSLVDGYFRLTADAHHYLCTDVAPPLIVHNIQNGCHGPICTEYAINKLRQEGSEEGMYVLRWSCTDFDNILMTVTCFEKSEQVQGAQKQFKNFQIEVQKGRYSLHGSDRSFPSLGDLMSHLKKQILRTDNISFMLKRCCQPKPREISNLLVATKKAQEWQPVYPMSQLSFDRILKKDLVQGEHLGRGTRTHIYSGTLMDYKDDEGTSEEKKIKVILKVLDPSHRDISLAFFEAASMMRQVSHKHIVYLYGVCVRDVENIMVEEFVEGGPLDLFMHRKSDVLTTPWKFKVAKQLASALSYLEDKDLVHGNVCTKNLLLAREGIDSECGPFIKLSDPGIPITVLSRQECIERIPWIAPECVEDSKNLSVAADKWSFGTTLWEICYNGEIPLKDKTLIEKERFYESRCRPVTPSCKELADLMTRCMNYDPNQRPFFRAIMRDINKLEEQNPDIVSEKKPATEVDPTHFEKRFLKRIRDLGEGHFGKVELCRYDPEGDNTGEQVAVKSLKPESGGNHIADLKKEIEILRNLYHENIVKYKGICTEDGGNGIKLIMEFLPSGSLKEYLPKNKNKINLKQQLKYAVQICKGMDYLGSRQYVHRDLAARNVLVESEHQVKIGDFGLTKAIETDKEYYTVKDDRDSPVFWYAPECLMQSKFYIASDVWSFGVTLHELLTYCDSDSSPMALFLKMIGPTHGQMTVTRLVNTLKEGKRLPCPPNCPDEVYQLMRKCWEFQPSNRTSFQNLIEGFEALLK

Human JAK1 [6] = target: T4, Human JAK1; test: as above; format: biochemical
Human TYK2 [7] = target: T2, Human TYK2; test: In vitro kinase inhibition test, TYK2 (33P-ATP filter scintillation); format: biochemical
Human JAK2 [8] = target: T3, Human JAK2; test: In vitro kinase inhibition test, JAK2 (33P-ATP filter scintillation); format: biochemical
DBA/1J mice = test: Collagen-induced arthritis (CIA) model, hind paw edema volume; format: in vivo, mouse; conditions: 50 mg/kg oral once a day
Description: 2. Collagen-induced Arthritis (CIA) Model
DBA/1J mice (6 weeks old, male) were purchased from Japan SLC, Inc., and maintained under controlled lighting in a 12-hour light/dark cycle (07:00-19:00). The temperature was maintained at about 22° C., and the mice were allowed to freely have feed and drinking water.
Type II collagen (dissolved in 0.05 M acetic acid (2 mg/mL)) was kept at 4° C. prior to induction. On the first day of induction, prior to a first immunization, a complete Freund's adjuvant and type II collagen in an equal ratio were homogenized in a cooled tube using a homogenizer to obtain an emulsion of the type II collagen and the Freund's adjuvant. 0.1 mL of the emulsion was injected into mouse tails for the first immunization. […]
Therapeutic efficacy of the compounds according to embodiments was determined using a collagen-induced mouse animal model. […]
The degree of arthritic disease was determined based on the degree of paw edema obtained by measuring a volume of mouse hind paws of the experimental animals. A volume change in the hind paws was measured using a volume measuring flowmeter (Plethysmometer, Havard apparatus, USA, Cat no. 760220), wherein the volume was measured by putting the mouse hind legs into a measurement cell, from knee to paw. The volumes of both paws were measured, and a larger volume value between the two was used as a representative value. […]

T1 sequence (P52333 whole entry): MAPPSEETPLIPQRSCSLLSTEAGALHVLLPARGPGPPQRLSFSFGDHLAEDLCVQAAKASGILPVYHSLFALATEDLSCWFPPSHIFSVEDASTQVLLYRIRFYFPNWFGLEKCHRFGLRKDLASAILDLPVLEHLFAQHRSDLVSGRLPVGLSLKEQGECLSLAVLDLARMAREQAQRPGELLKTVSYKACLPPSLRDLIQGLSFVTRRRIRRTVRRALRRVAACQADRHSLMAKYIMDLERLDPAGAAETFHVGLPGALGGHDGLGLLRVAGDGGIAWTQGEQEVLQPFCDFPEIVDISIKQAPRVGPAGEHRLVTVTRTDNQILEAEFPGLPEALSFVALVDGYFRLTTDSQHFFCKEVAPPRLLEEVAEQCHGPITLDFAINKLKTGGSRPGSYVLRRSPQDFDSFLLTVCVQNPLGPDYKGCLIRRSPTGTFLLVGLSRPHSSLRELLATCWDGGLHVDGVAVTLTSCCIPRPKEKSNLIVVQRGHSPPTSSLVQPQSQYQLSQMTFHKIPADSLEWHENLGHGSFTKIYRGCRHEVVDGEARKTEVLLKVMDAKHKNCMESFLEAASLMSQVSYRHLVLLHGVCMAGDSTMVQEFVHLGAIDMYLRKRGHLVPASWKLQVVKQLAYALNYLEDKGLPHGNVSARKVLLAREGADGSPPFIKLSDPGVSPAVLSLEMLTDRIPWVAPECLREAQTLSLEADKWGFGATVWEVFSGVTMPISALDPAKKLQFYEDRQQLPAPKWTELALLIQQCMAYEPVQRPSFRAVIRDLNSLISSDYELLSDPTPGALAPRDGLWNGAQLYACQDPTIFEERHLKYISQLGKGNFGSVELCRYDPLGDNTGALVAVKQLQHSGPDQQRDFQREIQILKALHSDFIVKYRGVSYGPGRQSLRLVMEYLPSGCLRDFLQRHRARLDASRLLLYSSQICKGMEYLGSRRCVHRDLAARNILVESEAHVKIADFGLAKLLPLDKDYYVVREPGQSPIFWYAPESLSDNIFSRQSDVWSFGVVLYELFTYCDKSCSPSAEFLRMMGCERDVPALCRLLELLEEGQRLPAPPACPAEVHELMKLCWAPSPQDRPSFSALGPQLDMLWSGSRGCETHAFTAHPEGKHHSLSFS

IC50 (Human JAK3 [1]) | inhibition at 1 µM (Human TYK2 [2]) | inhibition at 1 µM (Human JAK2 [3]) | inhibition at 1 µM (Human JAK3 [4]) | inhibition at 1 µM (Human JAK1 [5]) | IC50 (Human JAK1 [6]) | IC50 (Human TYK2 [7]) | IC50 (Human JAK2 [8]) | JAK1 inhibitory activity relative to the racemic mixture (Example 55) (Human JAK1 [6]; from IC50 values 8.5 nM vs 29.3 nM) | inhibition at 1 µM (Human TYK2 [7]; read-out: TYK2 kinase-phosphorylation inhibitory level (% inhibition)) | Compound | inhibition of hind paw edema as compared to the control group (DBA/1J mice; 49th day after the first immunization (end of measurement)) | inhibition of hind paw edema as compared to the control group (DBA/1J mice; from the 31st day after the first immunization onwards)
694 nM | 58% | 53% | 30% | 95% | 29.3 nM | 40.4 nM | 148 nM |  |  | CN(c1ncnc2[nH]ccc12)C1CN(C(=O)CC#N)CC12CC2 (racemic) [Example 55, 3-(7-(methyl(7H-pyrrolo[2,3-d]pyrimidin-4-yl)amino)-5-azaspiro[2.4]heptan-5-yl)-3-oxopropanenitrile] |  | 
1090 nM | 82% | 79% | 50% | 95% | 8.5 nM | 252 nM | 412 nM | about 3.5 fold |  | CN(c1ncnc2[nH]ccc12)[C@H]1CN(C(=O)CC#N)CC12CC2 [Example 5, (R)-3-(7-(methyl(7H-pyrrolo[2,3-d]pyrimidin-4-yl)amino)-5-azaspiro[2.4]heptan-5-yl)-3-oxopropanenitrile] | about 64% | ≥ 60%
> 1000 nM | -16% | -15% | 17% | 65% | 787 nM | > 1000 nM | > 1000 nM |  |  | CN(c1ncnc2[nH]ccc12)[C@@H]1CN(C(=O)CC#N)CC12CC2 [Example 66, (S)-3-(7-(methyl(7H-pyrrolo[2,3-d]pyrimidin-4-yl)amino)-5-azaspiro[2.4]heptan-5-yl)-3-oxopropanenitrile] |  | 
 | 36% | 6% | 9% | 58% |  |  |  |  |  | CN(c1ncnc2[nH]ccc12)[C@@H]1CN(C(=S)CC#N)CC12CC2 [Example 69, (S)-3-(7-(methyl(7H-pyrrolo[2,3-d]pyrimidin-4-yl)amino)-5-azaspiro[2.4]heptan-5-yl)-3-thioxopropanenitrile] |  | 
 | 5% | 24% | -3% | 31% |  |  |  |  |  | CC(C)COC(=O)N1C[C@@H](N(C)c2ncnc3[nH]ccc23)C2(CC2)C1 [Example 70, isobutyl (S)-7-(methyl(7H-pyrrolo[2,3-d]pyrimidin-4-yl)amino)-5-azaspiro[2.4]heptane-5-carboxylate] |  | 

Further lines, the compound ahead of its results:

Compound | IC50 (Human JAK3 [1]) | inhibition at 1 µM (Human TYK2 [2]) | inhibition at 1 µM (Human JAK2 [3]) | inhibition at 1 µM (Human JAK3 [4]) | inhibition at 1 µM (Human JAK1 [5]) | IC50 (Human JAK1 [6]) | IC50 (Human TYK2 [7]) | IC50 (Human JAK2 [8]) | JAK1 inhibitory activity relative to the racemic mixture (Example 55) (Human JAK1 [6]; from IC50 values 8.5 nM vs 29.3 nM) | inhibition at 1 µM (Human TYK2 [7]; read-out: TYK2 kinase-phosphorylation inhibitory level (% inhibition)) | inhibition of hind paw edema as compared to the control group (DBA/1J mice; 49th day after the first immunization (end of measurement)) | inhibition of hind paw edema as compared to the control group (DBA/1J mice; from the 31st day after the first immunization onwards)
CCS(=O)(=O)N1CC(N(C)c2ncnc3[nH]ccc23)C2(CC2)C1 (racemic) [Example 62, N-(5-(ethylsulfonyl)-5-azaspiro[2.4]heptan-7-yl)-N-methyl-7H-pyrrolo[2,3-d]pyrimidin-4-amine] | > 1000 nM | 67% | 59% | 59% | 95% | 2.8 nM | 198 nM | 422 nM |  |  |  | 
CN(c1ncnc2[nH]ccc12)[C@H]1CN(S(=O)(=O)c2cccc(C#N)c2)CC12CC2 [Example 41, (R)-3-((7-(methyl(7H-pyrrolo[2,3-d]pyrimidin-4-yl)amino)-5-azaspiro[2.4]heptan-5-yl)sulfonyl)benzonitrile] | 110 nM | 97% | 99% | 77% | 99% | 5.8 nM | 24.7 nM | 58.6 nM |  |  |  | 
CN(c1ncnc2[nH]ccc12)[C@@H]1CN(C(=O)c2ccc(C#N)cc2)CC12CC2 [Example 68, (S)-4-(7-(methyl(7H-pyrrolo[2,3-d]pyrimidin-4-yl)amino)-5-azaspiro[2.4]heptane-5-carbonyl)benzonitrile] |  | 2% | -5% | -7% | 14% |  |  |  |  |  |  | 
CCS(=O)(=O)N1C[C@@H](N(C)c2ncnc3[nH]ccc23)C2(CC2)C1 [Example 71, (S)-N-(5-(ethylsulfonyl)-5-azaspiro[2.4]heptan-7-yl)-N-methyl-7H-pyrrolo[2,3-d]pyrimidin-4-amine] |  | 12% | 13% | -22% | 40% |  |  |  |  |  |  | 
CN(c1ncnc2[nH]ccc12)[C@@H]1CN(S(=O)(=O)c2ccccc2)CC12CC2 [Example 72, (S)-N-methyl-N-(5-(phenylsulfonyl)-5-azaspiro[2.4]heptan-7-yl)-7H-pyrrolo[2,3-d]pyrimidin-4-amine] |  | 28% | 10% | -1% | 55% |  |  |  |  |  |  | 
CCN1C[C@H](N(C)c2ncnc3[nH]ccc23)C2(CC2)C1 [Example 73, (R)-N-(5-ethyl-5-azaspiro[2.4]heptan-7-yl)-N-methyl-7H-pyrrolo[2,3-d]pyrimidin-4-amine] |  | -7% | -6% | 1% | 42% |  |  |  |  |  |  | 
C[C@@H]1CCN(C(=O)CC#N)C[C@@H]1N(C)c1ncnc2[nH]ccc12 [tofacitinib citrate, reference compound] |  |  |  |  |  |  |  |  |  | 100% |  | 

Source: patent US10081635B2, “Substituted N-(pyrrolidine-3-yl)-7H-pyrrolo[2,3-D]pyrimidine-4-amine as janus kinase inhibitor” (YANG JI CHEMICAL CO., LTD., priority 2014, dated 2018)
